This is an account of results in patent publication US20210038668A1, “TRADITIONAL CHINESE MEDICINE COMPOSITION FOR PREVENTING AND/OR TREATING ISCHEMIC REPERFUSION INJURY” (TASLY PHARMACEUTICAL GROUP CO., LTD., priority 2018, published 2021).

One test deals with brain tissue (edema). As to the kind of experiment: Brain tissue dry/wet weight ratio. Format: in vivo, C57BL/6 mice. Conditions: 24 h after administration; tPA 10 mg/kg alone; T541 20 mg/kg + tPA 10 mg/kg. As to the method: Brain tissue dry/wet weight ratio: after reperfused for 24 hours, mice were immediately anesthetized; the head was cut off to take brain; left and right brain was respectively weighed (denoted as wet weight). Afterwards, the brain was placed into a 60° C. drying oven for drying for 72 hours, and then weighed (denoted as dry weight). Brain tissue dry/wet weight ratio is calculated by […].

The test system of a further test is Collagen IV. As to the kind of experiment: Western blotting of Collagen IV, basement membrane. Particulars: brain tissue 24 hours after administration, sham = 1.00; tPA 10 mg/kg alone; T541 20 mg/kg + tPA 10 mg/kg. Format: in vivo, C57BL/6 mice. As to the method: (§1) After reperfused for 24 hours, mice were perfused by normal saline; Western blotting analysis was conducted to the penumbra field of infarcted right cerebral cortex. After perfused, mice brain tissue was taken out; cerebellum and prefrontal lobe were cut off; the brain tissue of right brain close to 1 cm of the central joint of left and right hemispheres along the sagittal view; infarcted penumbra field of the rest tissues was cut off along an 45° angle; the cerebral cortex of the penumbra field was peeled off and preserved at low temperature. Right cerebral cortex was taken and added 1×RIPA lysate and a Cocktail protease inhibitor (1:100, Cell Signaling Technology, US) for full pyrolysis and ultrasonic treatment, and then 17000 g were centrifuged for 30 minutes. Supernatant was taken and added 5×loading buffer by volume, boiled for 20 minutes in boiling water, and then preserved at −80° C. Excessive supernatant was taken out and quantified by a BCA protein quantification liquor (ThermoScientific, US) to measure absorbance value at 560 nm of ELIASA and to calculate the protein concentration according to a standard curve. […] The density of electrophoretic strips was analyzed by an image analysis software Quantityone. […]

In the next test the test system is JAM-1. Kind of test: Western blotting of JAM-1, endothelial cells after hypoxia/reoxygenation. Format: cell-based. Particulars: rat brain endothelial cells, hypoxia 4.5 h/reoxygenation 3 h; tPA 20 mcg/ml alone (model group); T541 400 mcg/ml + tPA 20 mcg/ml. The source says: Establishment of rat brain endothelial cell H/R model: rat brain endothelial cells were purchased from ATCC, and then subcultured to 5-6 generations in normal conditions for further experiment. […]

A further test relates to ZO-1. As to the kind of experiment: Western blotting of ZO-1, cortex of ischemic penumbra. The test is classed as in vivo, C57BL/6 mice. Particulars: brain tissue 24 hours after administration, sham = 1.00; tPA 10 mg/kg alone; T541 20 mg/kg + tPA 10 mg/kg. As to the method:
as §1

The subject of a further test is VE-cadherin. Kind of test: Western blotting of VE-cadherin, cortex of ischemic penumbra. The test is classed as in vivo, C57BL/6 mice. Conditions: brain tissue 24 hours after administration, sham = 1.00; tPA 10 mg/kg alone; T541 20 mg/kg + tPA 10 mg/kg. As to the method:
as §1

The next test has as its system MDA. As to the kind of experiment: ELISA of MDA in brain tissue. The test is classed as in vivo, C57BL/6 mice. Particulars: brain tissue 24 hours after administration; tPA 10 mg/kg alone or + T541 20 mg/kg or ingredients at Table 7 doses. The source says: To compare the therapeutical effect on reperfusion injury caused by tPA thrombolysis between the traditional Chinese medicinal composition of the present invention and each ingredient (total saponins of Astragalus, the experiment was divided into the following group (tPA is combined with T541, individual ingredient thereof and compatibility of any two ingredients) specifically as follows: tPA+total saponins of Astragalus (tPA+HQ), tPA+ salvianolic acids (tPA+DS), tPA+Panax notoginseng saponins (tPA+SQ), tPA+ total saponins of Astragalus+salvianolic acids (tPA+HQ+DS), tPA+ total saponins of Astragalus+Panax notoginseng saponins (tPA+HQ+SQ), tPA+ salvianolic acids+Panax notoginseng saponins (tPA+DS+SQ) and tPA+T541. Normal saline served as an isovolumetric control. The usage number in each group is 6.
ELISA adsorption kit was used to measure the change on the content of MDA, 8-hydroxyl-2′-deoxyguanosine (8-OHdG), adenosine triphosphate (ATP), adenosine diphosphate (ADP) and adenosine monophosphate (AMP) in the penumbra field of brain tissue cortex of the mode, and the change on the activity of mitochondrial complexes I, II, IV and V. 6 samples were used to repeat the independent experiment for at least three times for each group of data.

For the substance “tPA: tissue-type plasminogen activator (tPA) for thrombolysis”, the “Brain dry/wet weight ratio” value with brain tissue (edema) is listed as 0.801 ± 0.002. In addition, the “Collagen IV content” value with Collagen IV is given as 0.68 ± 0.04. The JAM-1/β-actin with JAM-1 is reported as 0.64 ± 0.05. In the test on ZO-1, the ZO-1/β-actin was found to be 0.42 ± 0.05. The VE-cadherin/β-actin with VE-cadherin is given as 0.53 ± 0.07. Moreover, in the test with MDA, the MDA is recorded as 30.08 ± 2.90.
